Laboratory results as given in US5055396A, “Diagnostic methods and systems for quantifying APO AI” (Scripps Clinic and Research Foundation, priority 1987, dated 1991).

What was measured:
MAB AI-18 [1] = test: Competitive RIA: inhibition of MAB AI-18 binding to solid-phase Apo AI/HDL by competitor antigen or peptide; design: species or system mouse; conditions: competitive RIA; MAB AI-18 ascites 1:1.25×10^5; solid-phase Apo AI/HDL
Procedure: One hundred ul of PBS (0.15M NaCl, 0.01M NaPO4, pH 7.2) containing 10 ug/ml Apo AI/HDL were admixed to the wells of microtiter plates. The plates were maintained for 1 hour at 20 degrees C. on a rotating platform to allow the Apo AI/HDL to adhere to the wells and form solid supports. After aspirating excess liquid from the wells, 200 ul of block solution (3% BSA, 3% NGS in PBS) was admixed to each well, and the wells were maintained for 30 minutes at 20 degrees C. on a rotating platform. Subsequently, the blocking solution was removed by aspiration and the wells were washed 3 times with SPRIA buffer.
In control wells either competing antigen or antibody was replaced by PBS containing 3% BSA.
The immunoreaction admixtures were maintained about 16 hours at 4 degrees C. on a rotating platform to permit formation of solid-phase immunoreaction products. […] The labeling immunoreaction admixtures so formed were maintained for 4 hours at 4 degrees C. on a rotating platform.
[…] of serial 3 fold dilutions of each sample prepared in Table 3 were admixed as competitor in the RIA described in this Example.
Fifty microliters of the stock of 2 fold serial dilutions of the stock were used as competitor in the RIA described in this Example.

MAB AI-18 [2] = test: Solid-phase polypeptide competitive ELISA (AI90-105 coated wells, HRP-type labeled MAB AI-18); format: binding, mouse; conditions: reference material: pool of about 20 normal plasmas; FIG. 8
Procedure: Six hundred microliters of 25 mM NH4 HCO3, pH 9.6, containing polypeptide AI90-105 at a concentration of 5 mg/ml were admixed with 119.4 ml of 0.1M NaHC)3, pH 9.0, to form a peptide coating solution. One hundred fifty microliters of the coating solution were admixed into the wells of flexible polyvinyl chloride microtiter plates (Nunc, Source). The wells were then maintained about 16-20 hours at 4 degrees C. to permit the peptide to adsorb onto (coat) the walls of the wells. After removing the peptide coating solution by shaking, the wells were washed once with 350 ul of rinsing buffer (PBS containing 1 gm/l BSA, 0.5 ml/l Tween 20, and 2 ul/l aprotinin). Excess protein binding sites were blocked by admixing 200 ul of blocking buffer (PBS containing 3% BSA) into each well, maintaining the wells for 1 hour at 20 degrees C., removing the blocking buffer by shaking, and then washing the wells 3 times as previously described. […]
Two hundred microliters of OPD substrate were then admixed into each well to form a developing-reaction admixture, which was maintained for 30 minutes at about 20 degrees C. Subsequently, 50 ul of 4N H2 SO4 were admixed into each well to stop the developing-reaction, and the resulting solution were assayed for absorbance at 490 nanometers using a microtiter plate reader (Dynatech). […]

In the case of LEEVKAKVQPYLDDFQ [AI90-105], the “Immunoreactivity (concentration of peptide competitor required to achieve a B/Bo value of 0.5)” value (MAB AI-18 [1]) is reported as 30 ug protein/ml and the “immunoreactivity of MAB AI-18 for peptide compared with reference material” value (MAB AI-18 [2]) is reported as “equivalent immunoreactivities”.
